In one assay the test system is TG. Description: Effects of combination use of Compound A and EPA on TG levels in rats. The format is in vivo, Wister rats. As to conditions: for TG Relative value (vs Control): oral once a day, Wister rats; for Effect on TG level, in words: Compound A 0.1 mg/kg and/or EPA 200 mg/kg, single or combination administration, Dunnett's test vs control. The method, then:
(§1) Wister rats (7-week old, male, Charles River Laboratories Japan Inc.) were used for the experiments. Under ad libitum feeding, the blood samples were obtained from the cervical vein, and the rats were divided into four groups (N=8) based on the plasma TG levels, plasma TC levels and the body weights. From the next day, a solvent (a 0.5% aqueous solution of methyl cellulose: […] In the afternoon of the final administration day, the blood samples were obtained under a condition of 4 hours fasting under anesthesia with pentobarbital, and the plasma VLDL-C levels were measured according to the method by Usui et al. (Usui S et al., Clin. Chem. 46, 63-72, 2000.) by high-speed liquid chromatography. Further, the TG levels were measured by an automatic analyzer, by using a measuring reagent, Qualigent TG (Sekisui Medical Co., Ltd.). The synergistic effect was determined by using Bürgi's formula (when a relative level in a group of combined use is smaller than a value of a product of a relative level of single agent A and a relative level of single agent B, then there is a synergistic effect). Group 2: 0.1 mg/kg of Compound A Group 3: 200 mg/kg of EPA Group 4: 0.1 mg/kg of Compound A and 200 mg/kg of EPA The results are shown as the mean value±standard deviation. Comparison between the control group and the drug-administration group was performed using a Dunnett's multiple comparison test, and a risk rate of less than 5% was determined to have a significant difference.

The next assay deals with VLDL-C. As to the kind of experiment: Effects of combination use of Compound A and EPA on plasma VLDL-C levels in rats. The format is in vivo, Wister rats. As to conditions: for VLDL-C Relative value (vs Control): oral once a day, Wister rats, plasma; for Effect on VLDL-C level, in words: Compound A 0.1 mg/kg and/or EPA 200 mg/kg, single or combination administration, Dunnett's test vs control. The method, then: as §1

For the next assay, the system named is LDL-C. As to the kind of experiment: Effects of combination use of Compound A and EPA on plasma LDL-C level in Wister rats. The format is in vivo. As to conditions: for LDL-C Relative value (vs. Control): oral once a day, Wister rats, plasma; for Effect on LDL-C level, in words: single administration of Compound A (0.1 mg/kg) or EPA, Dunnett's test vs control. The method, then:
as §1, with “divided into six groups (N=8)” for “divided into four groups (N=8)”, “the plasma LDL-C levels were” for “the plasma VLDL-C levels were”, “liquid chromatography. The synergistic” for “liquid chromatography. Further, the TG levels were measured by an automatic analyzer, by using a measuring reagent, Qualigent TG (Sekisui Medical Co., Ltd.). The synergistic”, “of EPA Group 5: 3,000 mg/kg of EPA Group 6: 0.1 mg/kg of Compound A and 3,000 mg/kg of EPA The results” for “of EPA The results”, “group and drug-administration group” for “group and the drug-administration group”, “was performed by using a” for “was performed using a”

Turning to `CC[C@@H](Oc1cccc(CN(CCCOc2ccc(OC)cc2)c2nc3ccccc3o2)c1)C(=O)O` [Compound A, (R)-2-[3-[[N-(benzoxazol-2-yl)-N-3-(4-methoxyphenoxy)propyl]aminomethyl]phenoxy]butyric acid], the “TG Relative value (vs Control)” value in the assay with TG (Compound A 0.1 mg/kg alone) amounted to 0.82. Besides, the “Effect on TG level, in words” value in the assay with TG is “a tendency of decreasing the level of TG was observed”. Besides, in the assay with VLDL-C (Compound A 0.1 mg/kg alone), the “VLDL-C Relative value (vs Control)” value is 0.68. Moreover, the “Effect on VLDL-C level, in words” value with VLDL-C is on record as “a tendency of decreasing the level of VLDL-C was observed”. Moreover, the “LDL-C Relative value (vs. Control)” value in the assay on LDL-C (Compound A 0.1 mg/kg alone) is 1.02. Further, the “Effect on LDL-C level, in words” value with LDL-C was “an obvious effect on LDL-C level was not observed”.

For the compound `CC/C=C\C/C=C\C/C=C\C/C=C\C/C=C\CCCC(=O)O` [EPA, All-cis-5,8,11,14,17-eicosapentaenoic acid], the “Effect on TG level, in words” value in the assay with TG is given as “any obvious effect on TG level was not observed”. Also, the “TG Relative value (vs Control)” value in the assay on TG (EPA 200 mg/kg alone) was 1.10. Further, the “Effect on VLDL-C level, in words” value in the assay with VLDL-C is reported as “any obvious effect on VLDL-C level was not observed”. For the same compound, in the assay on VLDL-C (EPA 200 mg/kg alone), the “VLDL-C Relative value (vs Control)” value is recorded as 0.92. Also, the entries for the “LDL-C Relative value (vs. Control)” value with LDL-C (EPA 200 mg/kg alone) and in the assay on LDL-C (EPA 3000 mg/kg alone) were 0.84 and 0.85, respectively. The “Effect on LDL-C level, in words” value in the assay on LDL-C is reported as “mild decreasing action on LDL-C level was observed”.
